# Like-named read-outs stand apart in the source and are kept apart here.
# Experiments:
# [1] = at 100° C.; cited from earlier work
# [2] = tested on: rat; conditions: cited from earlier work
# [3] = Dielectric properties by open-ended coaxial measurement; type: physicochemical
# Text: Materials or formulations with a high dipole moment as potential thermal accelerants can be expressed by the ε″ and σ values for thermal ablation (radiofrequency, microwave, irreversible electroporation. A person skilled in the art will recognize that in order to show the capacity of a material, or formulations of a material, quantitatively as a thermal accelerant, the concept of permittivity can be employed in lieu of, or in addition to, evaluation of dipole moment. For example, materials can be tested using an electromagnetic wave of sinusoidal frequency ω, which is directed at a subject sample by an open-ended coaxial cable of a low-power oscillator. Measurement of the magnitude and phase of the fraction of the wave which is reflected allows deduction of the complex permittivity of the tissue.
# The complex permittivity is defined as ε*=ε′−jε″, where ε′ is the real permittivity and ε″ is the imaginary permittivity. […] The real permittivity is also known as the dielectric constant. The imaginary permittivity is also called the loss factor and can be written ε″=σ/(ωε0), so as to incorporate the electrical conductivity of the material, […]. The quantity a directly scales the power deposited per unit volume according to the following expression, ARD=σ|E|^2, where ARD is Absorption Rate Density (watt m^−3), […] is electrical conductivity (ohm^−1 m^−1), and JEJ is the magnitude of the electrical field (volt m^−1) produced by the microwave antenna at the point of interest in the tissue.
# [4] = Doxorubicin diffusion from coagulated gel in agarose phantom; type: physicochemical; conditions: 2.0 mg in 0.5 mL gel
# Procedure: Method 1: In a 1% (w/v) agarose gel as phantom, HSA-based #1 gel (0.5 mL) with Doxorubicin HCl (2.0 mg) was placed 1 cm away from a MW antenna at ambient temperature. The ablation was performed at 60 W for 10 minutes (MicroThermX/Varian 915 MHz). Post ablation, the cooled agarose gel was left at ambient temperature for 48 hours for diffusion of the Doxorubicin.
# The solution contained 1 (w/v) % agarose phantom. The ablation conditions: 915 MHz, 60 W for 10 minutes.
# [5] = In vitro elution of Doxorubicin from coagulated gel (HPLC); type: physicochemical; conditions: for part of drug eluted out over time: citrate buffer pH 7, 36.5° C.
# Procedure: Methods 2 Absorbance values of three known concentrations of Doxorubicin samples (1.0×10^−6, 9.5×10^−6 and 1.9×10^−5 M) were obtained to established a linear relationship (FIG. 4, Left) using a HPLC system: Agilant 1100; mobile phase=a gradient of ACN and H2O with 1% ammonium acetate; wavelength=500 nm; flow rate=1 mL/min. Each data point was an average of three measurements. Under the HPLC conditions, the retention time of Doxorubicin was at 4.00 minutes. Separately, three different amounts of Doxorubicin (2.1, 1.1 and 0.6 mg) were mixed with HSA-based #1 gel (0.5 mL each) and ablated using the conditions described in Aim 1. Once complete, the coagulated gel impregnated with Doxorubicin was collected and placed in a citrate buffer (5 mL, pH 7) in a water bath at 36.5° C. At 1, 3, 24 and 72 h, a small quantity of solution (0.5 mL) was passed through a membrane filter (cutoff 7 KDa) and injected into the HPLC system to quantify the eluted Doxorubicin. Each data point was triplicated.
# [6] = In vitro elution of Resiquimod from coagulated gel (HPLC); type: physicochemical
# Procedure: Methods 3 Absorbance values of three known concentrations of Resiquimod samples (4.3×10−6, 4.3×10−5 and 8.6×10−5 M) were obtained to established a linear relationship (FIG. 23A) using the HPLC system as described in Methods 2 except wavelength=328 nm and the retention time=3.31 min.
# [7] = reference values; cited from earlier work
smiles,measurement,setting,value
"[Cl-].[Cs+] [CsCl, cesium chloride]",solubility in water,[1],2.7 kg/L
same,LD50,[2]; iv,910 mg/kg
same,LD50,[2]; oral,"2,600 mg/kg"
"CO [MeOH, methanol]",Dielectric constant (ε′),[3]; 915 MHz,31.2
same,electrical conductivity (σ),[3]; 915 MHz,0.1 mho/m
same,Dielectric constant (ε′),[3]; 2450 MHz,22.2
same,electrical conductivity (σ),[3]; 2450 MHz,0.1
COc1cccc2c1C(=O)c1c(O)c3c(c(O)c1C2=O)C[C@@](O)(C(=O)CO)C[C@@H]3O[C@H]1C[C@H](N)[C@H](O)[C@H](C)O1 [Doxorubicin],diffusion to the surrounding area of the phantom,[4]; 6 h after ablation,apparent
same,diffusion out of coagulated gel,[4]; immediately after ablation,no diffusion out of the protein meshwork
same,part of drug eluted out over time,[5]; 0.6 mg in 0.5 mL gel,87%
same,part of drug eluted out over time,[5]; 1.1 mg in 0.5 mL gel,64%
same,part of drug eluted out over time,[5]; 2.1 mg in 0.5 mL gel,57%
same,elution rate over time,"[5]; 1, 3, 24, 72 h",highest at 1 h
same,part of drug eluted out over time,[6]; 0.063 mg,87%
same,part of drug eluted out over time,[6]; 0.63 mg,64%
same,part of drug eluted out over time,[6]; 1.25 mg,57%
O [Water],Dielectric constant (ε′),[3]; 915 MHz,78.3
same,electrical conductivity (σ),[3]; 915 MHz,0 mho/m
same,Dielectric constant (ε′),[3]; 2450 MHz,76.9
same,electrical conductivity (σ),[3]; 2450 MHz,0.1
O [Water (deionized)],Electrical Conductivity (σ) of reference media,[7],5 × 10^−6 S/m

# From patent US12702478B2, “Devices, methods, and compositions for thermal acceleration and drug delivery” (Rhode Island Hospital, priority 2015, dated 2026)
